Test results from PMC8308836, “Albumin Nanoparticle Formulation for Heart-Targeted Drug Delivery: In Vivo Assessment of Congestive Heart Failure” (Pharmaceuticals, 2021).
Read-outs that look alike come from different tables or passages of the source.

Key:
[1] = Pharmacokinetics of milrinone in plasma after i.v. injection; assay type: in vivo, female Lewis rats; settings: MRN dose 50 μg/kg, rat
Source text: Amrinone was used as an internal standard.

[2] = tested on: IL-10; experiment: Serum cytokine measurement by ELISA: IL-10; assay type: in vivo, female Lewis rats; settings: 1-week post treatment; i.v. injection, CHF rats, mean ± SD (n = 5)
Description: (§1) The cytokine analysis for levels of IL-6, IL-10, and tumor necrosis factor-alpha (TNF-α) was performed using commercially available ELISA kits (Abcam) according to the manufacturer’s instructions. Microtiter plates were precoated with a murine monoclonal antibody against the rat cytokine being measured. Standards of the analyte and serum samples were added in triplicate. The absorbance was read at 450 nm within 30 min of stopping the reaction and standard curves were plotted.

[3] = tested on: IL-6; experiment: Serum cytokine measurement by ELISA: IL-6; assay type: in vivo, female Lewis rats; settings: 1-week post treatment; i.v. injection, CHF rats, mean ± SD (n = 5)
Description: as §1

[4] = tested on: TNF-α; experiment: Serum cytokine measurement by ELISA: TNF-α; assay type: in vivo, female Lewis rats; settings: 1-week post treatment; i.v. injection, CHF rats, mean ± SD (n = 5)
Description: as §1

[5] = tested on: rat model of congestive heart failure
Description: Briefly, rats were anesthetized using 5% isoflurane, intubated, and mechanically ventilated at 80 breaths/minute. […] About 48 h after ligation of the artery, injections were performed using a 27-G needle. […] Group 3 (n = 8) received 250 μL bolus intravenous injection of 50 μg/kg MRN Lactate [39, 40]. […] Various endpoint measurements were taken as described in subsequent paragraphs.
Echocardiographic examinations were performed under inhaled isoflurane anesthesia (2.5% in oxygen, 500–700 mL/min). Transthoracic echocardiography was performed for each rat as a baseline before the surgery, 48 h post surgery, 60 min post injection, 24 h post injection, 48 h post injection, and 1-week post injection. Echocardiograms were obtained with a commercially available system (Micromaxx P04224; SonoSite, Bothell, WA, USA), equipped with a linear probe 7–13 MHz 25 mm footprint turbo transducer (P06519.11; SonoSite). Briefly, LV end-diastolic diameters (LVEDD) and end-systolic diameters (LVESD) were measured with M-mode tracings between the anterior and posterior walls from the parasternal short-axis view just below the level of the papillary muscles of the mitral valve [13]. The time of end-diastole was defined as time of maximum diameter of the LV in one heart cycle. Accordingly, end-systole was defined as the minimum diameter. Following the American Society of Echocardiology leading-edge method, two images on average were obtained in each view and averaged over three consecutive cycles [41]. The left-ventricular end-diastolic volume (LVEDV) and left-ventricular end-systolic volume (LVESV) were measured using the Teichholz formula [13].

[6] = 24 h post treatment; i.v. injection 50 μg/kg, CHF rats, mean ± SD (n = 3)
Description: The surgery was performed in a blinded manner as previously mentioned [22, 38]. Briefly, rats were anesthetized using 5% isoflurane, intubated, and mechanically ventilated at 80 breaths/minute. Via a left thoracotomy (through the fourth intercostal space), the LAD coronary artery was permanently ligated 2 mm from its origin with a 7/0 polypropylene suture (Ethicon Inc., Somerville, NJ, USA). […] About 48 h after ligation of the artery, injections were performed using a 27-G needle. Rats were randomized into five groups: Group 1 (n = 5) received an intravenous injection of 1 c.c. saline (Control). […] Group 3 (n = 8) received 250 μL bolus intravenous injection of 50 μg/kg MRN Lactate [39, 40]. Group 4 (n = 5) received 250 μL intravenous injection of empty NPs in the same concentration as Group 1. […] Blood was collected 24 h post injection for milrinone quantification. […]
The milrinone in plasma samples was quantified using High Performance Liquid Chromatography (HPLC) LCMS-8060 (Shimadzu). […] All samples were reconstituted in 40 µL of mobile phase A and analyzed by LC-MS/MS. […] The gradient started at 95:5 A:B. Samples were quantified using the area under the curve (AUC) and a standard curve.

[7] = 2 h time point; i.v., MRN dose 50 μg/kg, rat, mean ± SD (n = 4)
Description: The animals were randomized into three groups in a blinded manner. Group I (n = 6) was intravenously injected with 1 c.c. saline. […] Group III (n = 12) was intravenously injected with 250 μL of MRN Lactate containing 50 μg/kg MRN. Blood was collected from the jugular vein at the following timepoints: 0, 5, 15, 30, 45, 60, 120, and 360 min. The animals were euthanized by isoflurane/CO2. Organ tissues (heart, lungs, liver, and kidneys) were collected, washed, rinsed, and snap-frozen in liquid nitrogen.

[8] = tested on: rat model of congestive heart failure; experiment: Serum safety and toxicity markers (liver and renal function); assay type: in vivo, female Lewis rats; settings: CHF rats, i.v. injection; normal range 20–61 U/L
Description: Briefly, rats were anesthetized using 5% isoflurane, intubated, and mechanically ventilated at 80 breaths/minute. Via a left thoracotomy (through the fourth intercostal space), the LAD coronary artery was permanently ligated 2 mm from its origin with a 7/0 polypropylene suture (Ethicon Inc., Somerville, NJ, USA). […] About 48 h after ligation of the artery, injections were performed using a 27-G needle. Rats were randomized into five groups: Group 1 (n = 5) received an intravenous injection of 1 c.c. saline (Control). […] Group 4 (n = 5) received 250 μL intravenous injection of empty NPs in the same concentration as Group 1. […] Various endpoint measurements were taken as described in subsequent paragraphs. At 5 days post injection, all rats were killed by euthanasia.
Blood was collected via the jugular vein from the animals using a sterile 23 G/25 mm needle in the Microtainer® serum separator tubes (Becton Dickinson, Franklin Lakes, NJ, USA) for serum separation and in Plasma-EDTA tubes (Becton Dickinson, Franklin Lakes, NJ, USA) for plasma collection. The blood was allowed to clot at room temperature for 30 min and subsequently placed on ice until centrifugation. Serum was separated by low-speed centrifugation at 1500 rpm for 15 min at 4 °C and was frozen at −80 °C until analysis. […]

[9] = i.v. injection group, 48 h Post Ligation (before treatment)
[10] = i.v. injection group, Baseline—Pre-Ligation (before treatment)
[11] = i.v. injection, 50 μg/kg milrinone, 1-week Post Injection
[12] = i.v. injection, 50 μg/kg milrinone, 60 min Post Injection
[13] = i.v. injection, 50 μg/kg milrinone, 24 h Post Injection
[14] = i.v. injection, 50 μg/kg milrinone, 48 h Post Injection

CC(O)C(=O)O.Cc1[nH]c(=O)c(C#N)cc1-c1ccncc1 [MRN Lactate, milrinone lactate]
milrinone concentration in plasma ([1]; 0 min): 334.2 ng/mL | milrinone concentration in plasma ([1]; 5 min, mean ± SD (n = 4)): 203.5 ± 45.3 ng/mL | milrinone concentration in plasma ([1]; 15 min, mean ± SD (n = 4)): 75.4 ± 6.2 ng/mL | milrinone concentration in plasma ([1]; 30 min, mean ± SD (n = 4)): 72.6 ± 12.4 ng/mL | milrinone concentration in plasma ([1]; 45 min, mean ± SD (n = 4)): 22.9 ± 11.2 ng/mL | milrinone concentration in plasma ([1]; 120 min, mean ± SD (n = 4)): 4.1 ± 1.5 ng/mL | milrinone concentration in plasma ([1]; 360 min, mean ± SD (n = 4)): 1.6 ± 0.1 ng/mL | AUC0-t ([1]; non-compartmental): 104.3 ng·h/mL | AUC0-∞ ([1]; non-compartmental): 106.7 ng·h/mL | CL (clearance) ([1]; non-compartmental): 7.83 mL/min/kg | MRT (mean residence time) ([1]; non-compartmental): 49.1 min | Vss (apparent volume of distribution at steady state) ([1]; non-compartmental): 0.38 L/kg | Vz (apparent volume of distribution at elimination) ([1]; non-compartmental): 0.73 L/kg | t1/2 (half-life of plasma) ([1]; non-compartmental): 64.7 min | Serum IL-10 level [2]: 146.1 ± 24.7 pg/mL | Serum IL-6 level [3]: 39.3 ± 2.7 pg/mL | Serum TNF-α level [4]: 17.1 ± 2.8 pg/mL | Left Ventricular Ejection Fraction (LVEF) [5, 9]: 65.3 ± 2.3% | Left Ventricular Fractional Shortening (LVFS) [5, 9]: 34.3 ± 2.7% | Left Ventricular Ejection Fraction (LVEF) [5, 10]: 88.2 ± 1.8% | Left Ventricular Fractional Shortening (LVFS) [5, 10]: 52.6 ± 2.7% | Left Ventricular Ejection Fraction (LVEF) [5, 11]: 66.1 ± 4.2% | Left Ventricular Fractional Shortening (LVFS) [5, 11]: 30.8 ± 2.8% | Left Ventricular Ejection Fraction (LVEF) [5, 12]: 80.1 ± 3.3 % | Left Ventricular Fractional Shortening (LVFS) [5, 12]: 45.6 ± 3.2 % | Left Ventricular Ejection Fraction (LVEF) [5, 13]: 70.6 ± 3.6% | Left Ventricular Fractional Shortening (LVFS) [5, 13]: 33.6 ± 3.9% | Left Ventricular Ejection Fraction (LVEF) [5, 14]: 64.8 ± 4.3% | Left Ventricular Fractional Shortening (LVFS) [5, 14]: 30.2 ± 3.9% | milrinone detected in plasma [6]: 0.3 ± 0.1 ng/mL | MRN detected in heart [7]: 2.00 ± 1.01 ng/mL | MRN detected in kidneys [7]: 4.80 ± 0.6 ng/mL | MRN detected in liver [7]: 2.44 ± 0.23 ng/mL | Serum ALT level [8]: within the normal range
